Test systems include A549; COLO 205; EKVX; HCT-15; KM12; M14; MOLT-4; Malme-3M; NCI-H460; OVCAR-3; OVCAR-5; PC-3; RPMI-8226; SK-MEL-28; SK-MEL-5; SK-OV-3; SR; UACC-62; UO-31; HCC 2998.
What all share (experiment): growth of human tumour cells (NCI), 48 h

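Dose response: 5 concentrations. Exposure: 48 h. Format: 96-well plates. Endpoint: linear interpolation; highest concentration if not reached. GI50 marks 50% less growth.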 Active and inactive are the calls of the source. Rule as the data show it: active = GI50 up to about 1.1 µM and inactive = higher.

In the case of `Nc1[nH]nc2ccccc12`, the GI50 is > 100 µM (inactive) with A549; > 100 µM (inactive) with COLO 205; > 100 µM (inactive) in the experiment on EKVX; 54.7 µM in the experiment on HCT-15; > 100 µM (inactive) in the experiment with KM12; > 100 µM (inactive) with M14. Besides, the GI50 was > 100 µM (inactive) in the experiment with MOLT-4; > 100 µM (inactive) in the experiment on Malme-3M; > 100 µM (inactive) with NCI-H460; > 100 µM (inactive) in the experiment on OVCAR-3; 60 µM (inactive) in the experiment on OVCAR-5; > 100 µM (inactive) in the experiment on PC-3. In addition, the GI50 is > 100 µM (inactive) with RPMI-8226; > 100 µM (inactive) in the experiment on SK-MEL-28; > 100 µM (inactive) in the experiment on SK-MEL-5; > 100 µM (inactive) in the experiment on SK-OV-3; 62.2 µM (inactive) in the experiment with SR; 73.1 µM (inactive) in the experiment on UACC-62. The GI50 in the experiment on UO-31 was 83.4 µM (inactive).
Turning to `COc1cc2oc(=O)cc(C)c2cc1O`, the GI50 with A549 is > 100 µM (inactive); with COLO 205 it was > 100 µM (inactive); in the experiment with EKVX, > 100 µM (inactive); with HCC 2998, 3 µM (inactive); with HCT-15, above 100 µM; in the experiment on KM12 it was > 100 µM (inactive). Besides, the GI50 with M14, with MOLT-4, in the experiment with Malme-3M, with NCI-H460, with OVCAR-3 and in the experiment on OVCAR-5 was > 100 µM (inactive) in each case. The GI50 in the experiment on PC-3 was > 100 µM (inactive); in the experiment with RPMI-8226 it was > 100 µM (inactive); with SK-MEL-28, > 100 µM (inactive); in the experiment with SK-MEL-5, > 100 µM (inactive); with SR, > 100 µM (inactive); in the experiment on UO-31 it was 54.5 µM (inactive).
In the case of `COC(=O)c1cn(CCCCO)nn1`, the GI50 in the experiment on A549 was > 100 µM (inactive); with COLO 205, > 100 µM (inactive); with EKVX it was > 100 µM (inactive); in the experiment on HCC 2998, > 100 µM (inactive); in the experiment with HCT-15, above 100 µM; in the experiment on KM12 it was > 100 µM (inactive). In addition, the GI50 in the experiment on MOLT-4, in the experiment with Malme-3M, in the experiment on NCI-H460, in the experiment on PC-3, in the experiment with SK-MEL-28 and with SK-MEL-5 was > 100 µM (inactive) each time. In addition, the GI50 in the experiment with SR, in the experiment with UACC-62 and in the experiment on UO-31 was > 100 µM (inactive) each time.
As for `C=C1C(=O)C=C[C@]2(C)CC[C@H]3C(=C)C(=O)O[C@@H]3[C@@H]12`, the GI50 in the experiment with A549 was 11.6 µM (inactive); with COLO 205, 0.964 µM (active); in the experiment with EKVX, 3.17 µM (inactive); in the experiment with HCT-15, 0.785 µM; in the experiment on KM12, 1.61 µM (inactive); in the experiment on M14 it was 1.76 µM (inactive). In addition, the GI50 is 0.52 µM (active) with MOLT-4; 1.97 µM (inactive) in the experiment on Malme-3M; 12.1 µM (inactive) in the experiment on NCI-H460; 1.85 µM (inactive) with OVCAR-3; 1.33 µM (inactive) in the experiment on OVCAR-5; 2.84 µM (inactive) in the experiment on PC-3. Besides, the GI50 was 0.346 µM (active) in the experiment on RPMI-8226; 1.91 µM (inactive) in the experiment with SK-MEL-28; 2.34 µM (inactive) in the experiment on SK-MEL-5; 8.73 µM (inactive) with SK-OV-3; 1.79 µM (inactive) with SR; 1.96 µM (inactive) in the experiment on UACC-62. The GI50 in the experiment with UO-31 is 1.43 µM (inactive).
For the compound `O=C1N[C@@H](COc2ccc(/C=N/c3ccc(CCc4ccc(/N=C/c5ccc(OC[C@@H]6COC(=O)N6)cc5)cc4)cc3)cc2)CO1`, the GI50 in the experiment with A549 is > 100 µM (inactive); with COLO 205, > 100 µM (inactive); with EKVX it was > 100 µM (inactive); in the experiment with HCT-15, above 100 µM; in the experiment on KM12 it was > 100 µM (inactive); in the experiment with M14 it was > 100 µM (inactive). Moreover, the GI50 in the experiment on MOLT-4, with Malme-3M, with OVCAR-3, with OVCAR-5, in the experiment with PC-3 and in the experiment with RPMI-8226 was > 100 µM (inactive) in each case. For the same compound, the GI50 in the experiment with SK-MEL-28, in the experiment with SK-MEL-5, with SK-OV-3, in the experiment on SR, in the experiment with UACC-62 and with UO-31 was > 100 µM (inactive) in each case.
In the case of `CC[C@@H]1CC[C@@H]2[C@H](CC[C@]3(C)[C@@H](O[N+](=O)[O-])CC[C@@H]23)[C@H]1C(C)=O`, the GI50 with A549 was 28.4 µM (inactive); in the experiment with COLO 205 it was 7.85 µM (inactive); in the experiment with EKVX it was 16.8 µM (inactive); in the experiment with HCC 2998, 28 µM (inactive); in the experiment on HCT-15, 22.2 µM; in the experiment with KM12, 17.3 µM (inactive). Besides, the GI50 in the experiment on M14 was 30.8 µM (inactive); with MOLT-4 it was 24.3 µM (inactive); in the experiment on Malme-3M it was 25.4 µM (inactive); in the experiment on NCI-H460, 27.4 µM (inactive); in the experiment with OVCAR-3, 64.1 µM (inactive); with OVCAR-5, 64.3 µM (inactive). Also, the GI50 in the experiment on PC-3 was 28.9 µM (inactive); with RPMI-8226 it was 9.02 µM (inactive); in the experiment with SK-MEL-28, 30.3 µM (inactive); with SK-MEL-5 it was 19.7 µM (inactive); with SR it was 25.6 µM (inactive); in the experiment with UO-31, 24.6 µM (inactive).
Consider `CC(=O)OCCOc1cc2c([nH]c3ccccc32)c(C)c2cccc1-2`, for which the GI50 with A549 is 3.85 µM (inactive); in the experiment on COLO 205, 1.7 µM (inactive); in the experiment on EKVX it was 1.86 µM (inactive); in the experiment on HCT-15 it was 2.94 µM; in the experiment on KM12 it was 2.34 µM (inactive); with M14, 2.48 µM (inactive). For the same compound, the GI50 was 3.33 µM (inactive) in the experiment on MOLT-4; 2.11 µM (inactive) in the experiment with Malme-3M; 2.59 µM (inactive) with NCI-H460; 2.01 µM (inactive) with OVCAR-3; 2.97 µM (inactive) in the experiment with OVCAR-5; 1.76 µM (inactive) with PC-3. The GI50 with RPMI-8226 was 2.43 µM (inactive); with SK-MEL-28, 2.58 µM (inactive); in the experiment with SK-MEL-5, 2.77 µM (inactive); in the experiment on SK-OV-3 it was 4.3 µM (inactive); in the experiment on SR it was 2.92 µM (inactive); in the experiment on UACC-62, 2.39 µM (inactive). Further, in the experiment on UO-31, the GI50 is 1.75 µM (inactive).
`CC[n+]1[b-](C(C)(C)C)n(/N=C(\C)C(C)(C)C)[b-](C(C)(C)C)[n+]1CC`: the GI50 is > 100 µM (inactive) in the experiment on A549; > 100 µM (inactive) in the experiment with EKVX; > 100 µM (inactive) in the experiment on HCC 2998; above 100 µM in the experiment on HCT-15; > 100 µM (inactive) with KM12; > 100 µM (inactive) with M14. In addition, the GI50 with MOLT-4, in the experiment on Malme-3M, with NCI-H460, in the experiment with OVCAR-3, in the experiment on OVCAR-5 and in the experiment with PC-3 was > 100 µM (inactive) throughout. For the same compound, the GI50 with SK-MEL-28 was > 100 µM (inactive); in the experiment with SK-MEL-5, > 100 µM (inactive); in the experiment on SR it was 23.6 µM (inactive); with UACC-62 it was > 100 µM (inactive); with UO-31, > 100 µM (inactive).

Source of the values: ChEMBL document CHEMBL1201862, “PubChem BioAssay data set” (2004).
